# Test: Solubility in water and aqueous medium
# Format: physicochemical
substance,measurement,value
moexitecan,Solubility in water and an aqueous medium,insoluble or almost insoluble

# Reference: US20200338519A1, “METHOD FOR PREPARING LIPOSOME” (priority 2015, published 2020)
